The text below walks through data of ChEMBL document CHEMBL3046819, “Synthesis and antimicrobial activity of new pyridine derivatives-I” (2011).

Holding throughout (type): functional
What all share (settings): read-out: IZ

Assay [1] has as its system Candida albicans. The assay is described as follows: Antifungal activity against Candida albicans ATCC 10231 at 200 ug/ml by cup-plate method.
The test system of assay [2] is Candida albicans. The assay is described as follows: Antifungal activity against Candida albicans ATCC 10231 at 100 ug/ml by cup-plate method.
In assay [3] the test system is Bacillus subtilis. In words: Antibacterial activity against Bacillus subtilis ATCC 6633 at 200 ug/ml by cup-plate method.
The subject of assay [4] is Bacillus subtilis. The assay is described as follows: Antibacterial activity against Bacillus subtilis ATCC 6633 at 100 ug/ml by cup-plate method.
The test system of assay [5] is Staphylococcus aureus. The assay is described as follows: Antibacterial activity against Staphylococcus aureus ATCC 9144 at 200 ug/ml by cup-plate method.
Assay [6] relates to Staphylococcus aureus. In words: Antibacterial activity against Staphylococcus aureus ATCC 9144 at 100 ug/ml by cup-plate method.
The test system of assay [7] is Escherichia coli. In words: Antibacterial activity against Escherichia coli ATCC 25922 at 200 ug/ml by cup-plate method.
Assay [8] has as its system Escherichia coli. In words: Antibacterial activity against Escherichia coli ATCC 25922 at 100 ug/ml by cup-plate method.
The test system of assay [9] is Pseudomonas aeruginosa. The assay is described as follows: Antibacterial activity against Pseudomonas aeruginosa ATCC 9027 at 200 ug/ml by cup-plate method.
The subject of assay [10] is Pseudomonas aeruginosa. In words: Antibacterial activity against Pseudomonas aeruginosa ATCC 9027 at 100 ug/ml by cup-plate method.

Take `Cc1ccc2sc(Nc3ncccc3C(=O)N3CCN(CCO)CC3)nc2c1`: the zone of inhibition at 200 µg/mL was determined as 2 mm in [1]; 8 mm in assay [3]; 10 mm in assay [5]; 10 mm in [7]; 6 mm in [9]. Besides, the zone of inhibition at 100 µg/mL in [2] was determined as 1 mm; in assay [4] it was 8 mm; in [6], 8 mm; in assay [8] it was 6 mm; in assay [10] it was 5 mm.

For `Cc1ccc2nc(Nc3ncccc3C(=O)N3CCN(CCO)CC3)sc2c1`, the zone of inhibition at 200 µg/mL in [1] stood at 5 mm; in assay [3], 0 mm; in assay [5], 3 mm; in assay [7], 6 mm; in [9], 0 mm. Also, the zone of inhibition at 100 µg/mL is 2 mm in [2]; 0 mm in [4]; 0 mm in assay [6]; 0 mm in assay [8]; 0 mm in assay [10].

As for `COc1cccc2sc(Nc3ncccc3C(=O)N3CCN(CCO)CC3)nc12`, the zone of inhibition at 200 µg/mL in assay [1] turned out to be 4 mm; in assay [3] it was 10 mm; in [5], 8 mm; in assay [7], 3 mm; in assay [9], 9 mm. For the same molecule, the zone of inhibition at 100 µg/mL in assay [2] turned out to be 4 mm; in [4], 6 mm; in assay [6], 6 mm; in assay [8] it was 3 mm; in assay [10] it was 7 mm.

As for `O=C(c1cccnc1Nc1nc2ccccc2s1)N1CCN(CCO)CC1`, the zone of inhibition at 200 µg/mL in assay [1] worked out at 5 mm; in [3], 10 mm; in assay [5], 7 mm; in [7], 8 mm; in assay [9], 9 mm. Moreover, the zone of inhibition at 100 µg/mL in [2] is 3 mm; in [4], 6 mm; in assay [6], 6 mm; in [8] it was 7 mm; in assay [10], 8 mm.

For `O=C(c1cccnc1Nc1nc2c([N+](=O)[O-])cccc2s1)N1CCN(CCO)CC1`, the zone of inhibition at 200 µg/mL worked out at 7 mm in [1]; 9 mm in assay [3]; 12 mm in assay [5]; 9 mm in assay [7]; 11 mm in assay [9]. Further, the zone of inhibition at 100 µg/mL in assay [2] worked out at 4 mm; in assay [4], 8 mm; in assay [6], 8 mm; in assay [8] it was 5 mm; in assay [10], 8 mm.

Regarding `O=C(c1cccnc1Nc1nc2cc([N+](=O)[O-])ccc2s1)N1CCN(CCO)CC1`, the zone of inhibition at 200 µg/mL in assay [1] was 4 mm; in assay [3] it was 8 mm; in [5], 11 mm; in assay [7], 8 mm; in [9] it was 7 mm. The zone of inhibition at 100 µg/mL in [2] was 2 mm; in assay [4] it was 8 mm; in [6], 6 mm; in assay [8], 4 mm; in [10] it was 7 mm.

With `O=C(c1cccnc1Nc1nc2ccc([N+](=O)[O-])cc2s1)N1CCN(CCO)CC1`, the zone of inhibition at 200 µg/mL was found to be 2 mm in [1]; 6 mm in assay [3]; 9 mm in assay [5]; 5 mm in [7]; 8 mm in assay [9]. For the same molecule, the zone of inhibition at 100 µg/mL in [2] worked out at 0 mm; in [4], 0 mm; in assay [6] it was 8 mm; in [8] it was 0 mm; in assay [10] it was 6 mm.

With `O=C(c1cccnc1Nc1nc2c(Cl)cccc2s1)N1CCN(CCO)CC1`, the zone of inhibition at 200 µg/mL came out at 6 mm in [1]; 8 mm in [3]; 7 mm in [5]; 9 mm in assay [7]; 9 mm in [9]. Also, the zone of inhibition at 100 µg/mL in [2] came to 3 mm; in assay [4], 7 mm; in assay [6], 7 mm; in assay [8] it was 6 mm; in [10], 7 mm.

On to `O=C(c1cccnc1Nc1nc2cc(Cl)ccc2s1)N1CCN(CCO)CC1`, for which the zone of inhibition at 200 µg/mL in assay [1] is 4 mm; in [3], 5 mm; in assay [5], 0 mm; in [7], 5 mm; in assay [9] it was 3 mm. Further, the zone of inhibition at 100 µg/mL stood at 3 mm in assay [2]; 5 mm in assay [4]; 0 mm in assay [6]; 5 mm in [8]; 0 mm in assay [10].

`O=C(c1cccnc1Nc1nc2ccc(Cl)cc2s1)N1CCN(CCO)CC1`: the zone of inhibition at 200 µg/mL in assay [1] is 1 mm; in [3], 9 mm; in assay [5], 9 mm; in [7], 10 mm; in [9], 10 mm. The zone of inhibition at 100 µg/mL stood at 0 mm in assay [2]; 7 mm in assay [4]; 8 mm in [6]; 6 mm in assay [8]; 7 mm in assay [10].

On to `Cc1cccc2sc(Nc3ncccc3C(=O)N3CCN(CCO)CC3)nc12`, for which the zone of inhibition at 200 µg/mL was 0 mm in [1]; 10 mm in [3]; 5 mm in [5]; 7 mm in assay [7]; 7 mm in assay [9]. Moreover, the zone of inhibition at 100 µg/mL in [2] is 0 mm; in assay [4], 7 mm; in assay [6] it was 4 mm; in assay [8], 3 mm; in [10], 6 mm.
